The target of one assay is RIP1 (Homo sapiens (Human), UniProt Q13546). In words: KINOMEscan binding assay, RIP1. As to conditions: Table 35.
The next assay concerns the target MLKL (full length) (Homo sapiens (Human), UniProt Q8NB16). In words: KINOMEscan binding assay, MLKL (full length). The conditions noted are these: Table 35. Here is the method: Kinase assays. For most assays, kinase-tagged T7 phage strains were grown in parallel in 24-well blocks in an E. coli host derived from the BL21 strain. E. coli were grown to log-phase and infected with T7 phage from a frozen stock (multiplicity of infection=0.4) and incubated with shaking at 32° C. until lysis (90-150 minutes).
The Hill Slope was set to −1.

The structures appear in SMILES notation. Bounds are passed on as bounds.

For orientation: Kd means the free concentration of one partner at which half of the binding sites on the other are occupied at equilibrium, for simple one-to-one binding. A higher Kd goes with lower affinity.

RIP1, sequence (Q13546 whole entry): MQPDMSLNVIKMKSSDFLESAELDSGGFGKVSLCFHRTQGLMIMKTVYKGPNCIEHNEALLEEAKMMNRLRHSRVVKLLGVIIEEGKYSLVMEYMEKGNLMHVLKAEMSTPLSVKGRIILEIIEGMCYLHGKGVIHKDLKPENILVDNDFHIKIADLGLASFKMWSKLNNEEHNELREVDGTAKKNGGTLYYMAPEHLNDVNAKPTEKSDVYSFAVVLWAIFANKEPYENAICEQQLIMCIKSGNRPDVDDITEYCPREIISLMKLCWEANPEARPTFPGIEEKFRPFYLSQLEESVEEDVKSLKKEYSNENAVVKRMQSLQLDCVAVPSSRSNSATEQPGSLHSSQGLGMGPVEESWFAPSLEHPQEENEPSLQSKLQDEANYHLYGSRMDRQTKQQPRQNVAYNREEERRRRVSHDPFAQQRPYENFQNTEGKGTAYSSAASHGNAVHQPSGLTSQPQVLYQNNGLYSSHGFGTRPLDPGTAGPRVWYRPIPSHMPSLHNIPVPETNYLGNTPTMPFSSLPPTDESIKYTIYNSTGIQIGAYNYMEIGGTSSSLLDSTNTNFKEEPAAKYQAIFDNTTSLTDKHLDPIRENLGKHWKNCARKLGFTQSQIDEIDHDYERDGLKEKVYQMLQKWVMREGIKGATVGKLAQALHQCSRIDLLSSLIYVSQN
MLKL (full length), sequence (Q8NB16 whole entry): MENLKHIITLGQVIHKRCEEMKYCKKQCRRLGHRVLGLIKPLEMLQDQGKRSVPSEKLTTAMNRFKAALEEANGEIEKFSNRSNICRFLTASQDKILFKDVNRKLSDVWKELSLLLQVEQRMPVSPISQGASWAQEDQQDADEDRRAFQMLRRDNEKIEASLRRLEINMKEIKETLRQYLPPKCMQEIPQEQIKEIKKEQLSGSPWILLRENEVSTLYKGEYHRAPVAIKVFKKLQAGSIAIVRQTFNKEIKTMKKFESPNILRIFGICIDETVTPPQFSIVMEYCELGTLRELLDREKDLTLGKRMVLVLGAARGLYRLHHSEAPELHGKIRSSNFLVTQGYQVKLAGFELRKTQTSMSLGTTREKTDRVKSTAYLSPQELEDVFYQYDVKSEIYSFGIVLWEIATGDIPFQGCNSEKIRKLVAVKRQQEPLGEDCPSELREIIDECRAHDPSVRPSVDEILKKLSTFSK

Take `CCS(=O)(=O)Nc1ccc(-c2n[nH]c(Nc3ccnc(OC)c3)c2C(N)=O)cc1OCc1ccc(F)cc1` [Compound 18, 3-(4-(ethylsulfonamido)-3-((4-fluorobenzyl)oxy)phenyl) 5-((2-methoxypyridin-4-yl)amino)-1H-pyrazole-4-carboxamide]: the Kd at RIP1 is more than 30 µM; at MLKL (full length), less than 0.01 µM. Take `CCS(=O)(=O)Nc1ccc(-c2n[nH]c(Nc3cccc(C(F)(F)F)n3)c2C(N)=O)cc1OCc1cccnc1` [Compound 33, 3-(4-(ethylsulfon-amido)-3-(pyridin-3-ylmethoxy)phenyl)-5-((6-(trifluoro-methyl)pyridin-2-yl)amino)-1H-pyrazole-4-carboxamide]: the Kd on RIP1 is more than 30 µM. For `NC(=O)c1c(-c2ccc(NS(=O)(=O)CC(F)(F)F)cc2)n[nH]c1Nc1cccc(C(F)(F)F)n1` [Compound 43, 3-(4-((2,2,2-trifluoroethyl)sulfonamido)phenyl)-5-((6-(trifluoromethyl)pyridin-2-yl)amino)-1H-pyrazole-4-carboxamide], the Kd at RIP1 is more than 30 µM; at MLKL (full length) it was less than 0.01 µM. In the same order, the values of `NC(=O)c1c(-c2ccc(NS(=O)(=O)CC(F)F)cc2)n[nH]c1Nc1cccc(C(F)(F)F)n1` [Compound 49, 3-(4-((2,2-difluoroethyl)sulfonamido)phenyl)-5-((6-(trifluoromethyl)pyridin-2-yl)amino)-1H-pyrazole-4-carboxamide] are more than 30 µM and less than 0.01 µM. The matching figures for `NC(=O)c1c(-c2ccc(NS(=O)(=O)C3CC3)cc2)n[nH]c1Nc1cccc(C(F)(F)F)n1` [Compound 52, 3-(4-(cyclopropanesulfonamido)phenyl)-5-((6-(trifluoromethyl)pyridin-2-yl)amino)-1H-pyrazole-4-carboxamide]: more than 30 µM and less than 0.01 µM. In the same order, the values of `NC(=O)c1c(-c2ccc(NS(=O)(=O)C(F)F)cc2)n[nH]c1Nc1cccc(C(F)(F)F)n1` [Compound 53, 3-(4-((difluoromethyl)sulfonamido)phenyl)-5-((6-(trifluoromethyl)pyridin-2-yl)amino)-1H-pyrazole-4-carboxamide] are more than 30 µM and less than 0.01 µM.

Turning to `CC(C)S(=O)(=O)Nc1ccc(-c2n[nH]c(Nc3cccc(C(F)(F)F)n3)c2C(N)=O)cc1` [Compound 54, 3-(4-((1-methylethyl)sulfonamido)phenyl)-5-((6-(trifluoromethyl)pyridin-2-yl)amino)-1H-pyrazole-4-carboxamide], the Kd on RIP1 is more than 30 µM; on MLKL (full length) it was less than 0.01 µM. With `NC(=O)c1c(-c2ccc(NS(=O)(=O)Cc3ccc(F)cc3)cc2)n[nH]c1Nc1cccc(C(F)(F)F)n1` [Compound 55, 3-(4-(((4-fluorophenyl)methyl)sulfonamido)phenyl)-5-((6-(trifluoromethyl)pyridin-2-yl)amino)-1H-pyrazole-4-carboxamide], at RIP1, the Kd was more than 30 µM. On the same count and under the same terms, next, `NC(=O)c1c(-c2ccc(NS(=O)(=O)Cc3ccc(Cl)c(Cl)c3)cc2)n[nH]c1Nc1cccc(C(F)(F)F)n1` [Compound 56, 3-(4-((3,4-dichlorophenyl)methylsulfonamido)phenyl)-5-((6-(trifluoromethyl)pyridin-2-yl)amino)-1H-pyrazole-4-carboxamide]: more than 30 µM.

On to `NC(=O)c1c(-c2ccc(NS(=O)(=O)Cc3ccccc3Cl)cc2)n[nH]c1Nc1cccc(C(F)(F)F)n1` [Compound 58, 3-(4-(((2-chlorophenyl)methyl)sulfonamido)phenyl)-5-((6-(trifluoromethyl)pyridin-2-yl)amino)-1H-pyrazole-4-carboxamide], for which, on RIP1, the Kd was more than 30 µM. Same read-out and setting: next, `CCS(=O)(=O)Nc1ccc(-c2n[nH]c(Nc3cnccn3)c2C(N)=O)cc1OC` [Compound 61, 3-(4-(ethylsulfon-amido)-3-methoxy-phenyl)-5-(pyrazin-2-ylamino)-1H-pyrazole-4-carboxamide]: more than 30 µM. With `CCS(=O)(=O)Nc1ccc(-c2n[nH]c(Nc3cnc(C(C)C)cn3)c2C(N)=O)cc1` [Compound 66, 3-(4-(ethylsulfonamido)phenyl)-5-((5-isopropylpyrazin-2-yl)amino)-1H-pyrazole-4-carboxamide], the results for the Kd at RIP1 and on MLKL (full length) were more than 30 µM and less than 0.01 µM, respectively.

`CC(C)S(=O)(=O)Nc1ccc(-c2n[nH]c(Nc3cnccn3)c2C(N)=O)cc1` [Compound 71, 3-(4-((1-methylethyl)sulfonamido)phenyl)-5-(pyrazin-2-ylamino)-1H-pyrazole-4-carboxamide]: the Kd on RIP1 was more than 30 µM; at MLKL (full length), less than 0.01 µM. `NC(=O)c1c(-c2ccc(NS(=O)(=O)C3CCCCC3)cc2)n[nH]c1Nc1cnccn1` [Compound 74, 3-(4-(cyclohexanesulfonamido)phenyl)-5-(pyrazin-2-ylamino)-1H-pyrazole-4-carboxamide] registered a Kd on RIP1 of more than 30 µM. Regarding `NC(=O)c1c(-c2ccc(NS(=O)(=O)Cc3ccccc3)cc2)n[nH]c1Nc1cnccn1` [Compound 77, 3-(4-((phenylmethyl)sulfonamido)phenyl)-5-(pyrazin-2-ylamino)-1H-pyrazole-4-carboxamide], the Kd on RIP1 was more than 30 µM. Take `CCS(=O)(=O)Nc1ccc(-c2n[nH]c(Nc3cc(C(F)(F)F)ccn3)c2C(N)=O)cc1` [Compound 85, 3-(4-(ethylsulfonamido)phenyl)-5-((4-(trifluoromethyl)pyridin-2-yl)amino)-1H-pyrazole-4-carboxamide]: the Kd at RIP1 is more than 30 µM. For the compound `CCS(=O)(=O)Nc1ccc(-c2n[nH]c(Nc3ccc4ccccc4c3)c2C(N)=O)cc1` [Compound 86, 3-(4-(ethylsulfonamido)phenyl)-5-(naphthalen-2-ylamino)-1H-pyrazole-4-carboxamide], the Kd was more than 30 µM on RIP1 and less than 0.01 µM on MLKL (full length). Compound `CCS(=O)(=O)Nc1ccc(-c2n[nH]c(Nc3ccc(OC)cn3)c2C(N)=O)cc1` [Compound 88, 3-(4-(ethylsulfonamido)phenyl)-5-((5-methoxypyridin-2-yl)amino)-1H-pyrazole-4-carboxamide] showed a dissociation constant (Kd) on MLKL (full length) of less than 0.01 µM. On the same count and under the same terms, the value for `CCS(=O)(=O)Nc1ccc(-c2n[nH]c(Nc3ccc4ccccc4n3)c2C(N)=O)cc1` [Compound 89, 3-(4-(ethylsulfonamido)phenyl)-5-(quinolin-2-ylamino)-1H-pyrazole-4-carboxamide] was less than 0.01 µM. Compound `CCS(=O)(=O)Nc1ccc(-c2n[nH]c(Nc3cccc(C)n3)c2C(N)=O)cc1` [Compound 94, 3-(4-(ethylsulfonamido)phenyl)-5-((6-methylpyridin-2-yl)amino)-1H-pyrazole-4-carboxamide] displayed a Kd at RIP1 of more than 30 µM. Turning to `CCS(=O)(=O)Nc1ccc(-c2n[nH]c(Nc3cccc(OC)n3)c2C(N)=O)cc1` [Compound 107, 3-(4-(ethylsulfonamido)phenyl)-5-((6-methoxypyridin-2-yl)amino)-1H-pyrazole-4-carboxamide], the Kd on RIP1 was more than 30 µM; at MLKL (full length), less than 0.01 µM.

For `C#CCS(=O)(=O)Nc1ccc(-c2n[nH]c(Nc3ccnc(OCCOC)c3)c2C(N)=O)cc1` [Compound 109, 5-((2-(2-methoxyethoxy)pyridin-4-yl)amino)-3-(4-(prop-2-yn-1-ylsulfonamido)phenyl)-1H-pyrazole-4-carboxamide], the Kd at RIP1 is more than 30 µM; at MLKL (full length) it was less than 0.01 µM. For the compound `COCCOc1cc(Nc2[nH]nc(-c3ccc(NS(=O)(=O)C(F)(F)F)cc3)c2C(N)=O)ccn1` [Compound 114, 5-((2-(2-methoxyethoxy)pyridin-4-yl)amino)-3-(4-((trifluoromethyl)sulfonamido)phenyl)-1H-pyrazole-4-carboxamide], the Kd on RIP1 was more than 30 µM; at MLKL (full length), less than 0.01 µM. With `CCS(=O)(=O)Nc1ccc(-c2n[nH]c(Nc3ccnc(OC)c3)c2C(N)=O)cc1` [Compound 121, 3-(4-(ethylsulfonamido)phenyl)-5-((2-methoxypyridin-4-yl)amino)-1H-pyrazole-4-carboxamide], at MLKL (full length), the Kd was less than 0.01 µM. `COCCOc1cc(Nc2[nH]nc(-c3ccc(NS(C)(=O)=O)cc3)c2C(N)=O)ccn1` [Compound 122, 5-((2-(2-methoxyethoxy)pyridin-4-yl)amino)-3-(4-(methylsulfonamido)phenyl)-1H-pyrazole-4-carboxamide]: the values for the Kd on RIP1 and on MLKL (full length) were more than 30 µM and less than 0.01 µM, respectively. Take `CCS(=O)(=O)Nc1ccc(-c2n[nH]c(Nc3cccc(OCCOC)n3)c2C(N)=O)cc1` [Compound 128, 3-(4-(ethylsulfonamido)phenyl)-5-((6-(2-methoxyethoxy)pyridin-2-yl)amino)-1H-pyrazole-4-carboxamide]: the dissociation constant (Kd) on RIP1 was more than 30 µM.

Take `NC(=O)c1c(-c2ccc(NS(=O)(=O)Cc3cccc(Cl)c3)cc2)n[nH]c1Nc1ccccn1` [Compound 129, 3-(4-(((3-chlorophenyl)methyl)sulfonamido)phenyl)-5-(pyridin-2-ylamino)-1H-pyrazole-4-carboxamide]: the Kd at RIP1 was more than 30 µM. The same measure, in the same setting: the value for `NC(=O)c1c(-c2ccc(NS(=O)(=O)CCc3ccccc3)cc2)n[nH]c1Nc1ccccn1` [Compound 130, 3-(4-((2-phenylethyl)sulfonamido)phenyl)-5-(pyridin-2-ylamino)-1H-pyrazole-4-carboxamide] was more than 30 µM. As to `CCS(=O)(=O)Nc1ccc(-c2n[nH]c(Nc3ccccn3)c2C(N)=O)cc1` [Compound 131, 3-(4-(ethylsulfonamido)phenyl)-5-(pyridin-2-ylamino)-1H-pyrazole-4-carboxamide], the Kd was more than 30 µM at RIP1 and less than 0.01 µM on MLKL (full length). `NC(=O)c1c(-c2ccc(NS(=O)(=O)c3ccccc3)cc2)n[nH]c1Nc1ccccn1` [Compound 133, 3-(4-(phenylsulfonamido)phenyl)-5-(pyridin-2-ylamino)-1H-pyrazole-4-carboxamide] showed a Kd on RIP1 of more than 30 µM. On the same count and under the same terms, the value for `NC(=O)c1c(-c2ccc(NS(=O)(=O)CC3CCC3)cc2)n[nH]c1Nc1ccccn1` [Compound 134] was more than 30 µM.

(Values after US20250074891A1 (Anaxis Pharma Pty Ltd., priority 2021, published 2025).)
